pIC50: −log10 of the molar value.
Tested on: KRAS patient-derived spheroids with HUVEC/MSC, viability
Experiment: Anticancer human tumor 323965-272-R-J2-PDC patient-derived pancreatic carcinoma cell line growth inhibition [KRAS2]
Conditions: for pIC50: curve of first compound; for viability, T/C: stronger effect = lower value
Text: Multicellular complex tumor spheroid response to RAS pathway inhibitors in combination with a targeted agents in patient-derived cell lines with oncogenic KRAS variants from multiple cancer types
A high-throughput screen of multi-cell type tumor spheroids was designed to identify active combinations of targeted small molecules and KRAS pathway inhibitors. Complex spheroids include a stromal component modeled by human endothelial cells (HUVEC) and fibroblasts modeled by human mesenchymal stem cells (MSCs). The concentration ranges selected for each drug and investigational agent were based upon clinically achievable concentrations if the clinical Cmax of the agent was known.
Compounds. The drugs and investigational agents: BI-3406 (NSC825286), BAY-293 (NSC824723), batoprotafib (TNO155; NSC825523), sotorasib (AMG 510; NSC818433), MRTX1257 (NSC819558), elimusertib (BAY 1895344; NSC800525), molibresib (GSK525762; NSC774829), temuterkib (LY3214996; NSC803410), venetoclax (NSC766270), alisertib (NSC759677), olaparib (NSC753686), talazoparib (NSC767125), erdafitinib (NSC781556), ipatasertib (NSC767898), cabozantinib (NSC761068), nintedanib (NSC756659), abemaciclib (NSC768073), docetaxel (NSC628503), trametinib (NSC758246), and sapanisertib (NSC764658) were obtained from the National Cancer Institute (NCI) Developmental Therapeutics Program Chemical Repository. The FDA-approved anticancer drug set is available from the Developmental Therapeutics Program. […] The stock solutions were prepared in dimethyl sulfoxide (DMSO, Sigma-Aldrich, St. Louis, MO, cat. D2650) at 800-fold the tested concentration and stored at -70 degrees C prior to their use. All drugs and investigational agents were tested over a range starting from a high concentration at or near the clinical Cmax and decreasing in half-log increments. If the clinical Cmax for an agent had not been determined, the highest concentration tested was 10 microM.
Cell Culture. All cells were maintained in an incubator at 37 degrees C and 5% CO2 with 95% humidity. The PDC lines were cultured according to standard operating procedures established by the NCI PDMR (https://pdmr.cancer.gov/sops/default.htm). Briefly, all PDCs were thawed and cultured in Matrigel-coated flasks prepared with a working solution of 1X Ham's F-12 nutrient mix, without supplementation (Invitrogen, Waltham, MA, cat. 11765054), 100 U/mL penicillin-streptomycin (Invitrogen, cat. 15140122), and 2.5% Matrigel (Corning Inc., Corning, NY, cat. 354248) for the first three passages. All PDCs were cultured in complete DMEM/F-12 media containing advanced DMEM/F-12 (Invitrogen, cat. 12634028), 4.9% defined fetal bovine serum, heat inactivated (HyClone Laboratories Inc., Logan, UT, cat. SH30070.03HI), 389 ng/mL hydrocortisone (Sigma-Aldrich, cat. H4001), 9.7 ng/mL human EGF recombinant protein (Invitrogen, cat. PHG0313), 23.4 microg/mL adenine (Sigma-Aldrich, cat. A2786), 97.3 U/mL penicillin-streptomycin (Invitrogen, cat. 15140122), 1.9 mM L-glutamine (Invitrogen, cat. 25030081), and 9.7 microM Y-27632 dihydrochloride (Tocris Bioscience, Bristol, United Kingdom, cat. 1254). The PDCs were cultured in complete DMEM/F12 media without 9.7 microM Y-27632 dihydrochloride for at least two passages prior to the screen. The established cell line HOP-62 was cultured in RPMI 1640 medium, HEPES (Invitrogen, cat. 22400105) with 10% defined fetal bovine serum (HyClone Laboratories Inc., cat. SH30070.03) and 2 mM L-glutamine (Invitrogen, cat. 25030081). The pooled donor HUVEC were cultured in endothelial cell growth medium 2 (PromoCell, Heidelberg, Germany, cat. C-22011) and the hMSC were cultured in mesenchymal stem cell growth medium 2 (PromoCell, cat. C-28009). For all experiments, HUVEC and hMSC were used at passages </=5, while the malignant cell lines were used at passages </=15. […]

[1] = second compound 0.1 µM, first compound 0.0316 µM
[2] = second compound 0.316 µM, first compound 0.0316 µM
[3] = second compound 1 µM, first compound 0.0316 µM
[4] = second compound 3.16 µM, first compound 0.0316 µM
[5] = second compound 10 µM, first compound 0.0316 µM
[6] = second compound 0.1 µM, first compound 0.1 µM
[7] = second compound 0.1 µM, first compound 0.316 µM
[8] = second compound 0.1 µM, first compound 1 µM
[9] = second compound 0.1 µM, first compound 3.16 µM
[10] = second compound 0.1 µM, first compound 10 µM
[11] = second compound 0.316 µM, first compound 0.1 µM
[12] = second compound 0.316 µM, first compound 0.316 µM
[13] = second compound 0.316 µM, first compound 1 µM
[14] = second compound 0.316 µM, first compound 3.16 µM
[15] = second compound 0.316 µM, first compound 10 µM
[16] = second compound 1 µM, first compound 0.1 µM
[17] = second compound 1 µM, first compound 0.316 µM
[18] = second compound 1 µM, first compound 1 µM
[19] = second compound 1 µM, first compound 3.16 µM
[20] = second compound 1 µM, first compound 10 µM
[21] = second compound 3.16 µM, first compound 0.1 µM
[22] = second compound 3.16 µM, first compound 0.316 µM
[23] = second compound 3.16 µM, first compound 1 µM
[24] = second compound 3.16 µM, first compound 3.16 µM
[25] = second compound 3.16 µM, first compound 10 µM
[26] = second compound 10 µM, first compound 0.1 µM
[27] = second compound 10 µM, first compound 0.316 µM
[28] = second compound 10 µM, first compound 1 µM
[29] = second compound 10 µM, first compound 3.16 µM
[30] = second compound 10 µM, first compound 10 µM
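Note: spheroids exposed to agents for 7 days.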
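Throughout, for viability, T/C: 100% = DMSO vehicle control viability.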

CC(=O)Nc1cccc(-n2c(=O)n(C3CC3)c(=O)c3c(Nc4ccc(I)cc4F)n(C)c(=O)c(C)c32)c1 + C=CC(=O)N1CCN(c2nc(=O)n(-c3c(C)ccnc3C(C)C)c3nc(-c4c(O)cccc4F)c(F)cc23)C(C)C1
pIC50 (second compound 0.1 µM): 8.94 | pIC50 (second compound 0.316 µM): 9.01 | pIC50 (second compound 1 µM): 9.10 | pIC50 (second compound 3.16 µM): 8.92 | pIC50 (second compound 10 µM): 9.53 | viability, T/C (second compound 0.1 µM, first compound 0.0001 µM): 67.4% | viability, T/C (second compound 0.1 µM, first compound 0.000316 µM): 62.2% | viability, T/C (second compound 0.1 µM, first compound 0.001 µM): 49.2% | viability, T/C (second compound 0.1 µM, first compound 0.00316 µM): 40.1% | viability, T/C (second compound 0.1 µM, first compound 0.01 µM): 36.6% | viability, T/C [1]: 23.4% | viability, T/C (second compound 0.316 µM, first compound 0.0001 µM): 60.1% | viability, T/C (second compound 0.316 µM, first compound 0.000316 µM): 57.1% | viability, T/C (second compound 0.316 µM, first compound 0.001 µM): 49.3% | viability, T/C (second compound 0.316 µM, first compound 0.00316 µM): 41.5% | viability, T/C (second compound 0.316 µM, first compound 0.01 µM): 33.7% | viability, T/C [2]: 20.9% | viability, T/C (second compound 1 µM, first compound 0.0001 µM): 61.4% | viability, T/C (second compound 1 µM, first compound 0.000316 µM): 58.3% | viability, T/C (second compound 1 µM, first compound 0.001 µM): 46.4% | viability, T/C (second compound 1 µM, first compound 0.00316 µM): 40.4% | viability, T/C (second compound 1 µM, first compound 0.01 µM): 32.7% | viability, T/C [3]: 27% | viability, T/C (second compound 3.16 µM, first compound 0.0001 µM): 64.1% | viability, T/C (second compound 3.16 µM, first compound 0.000316 µM): 59.5% | viability, T/C (second compound 3.16 µM, first compound 0.001 µM): 51.4% | viability, T/C (second compound 3.16 µM, first compound 0.00316 µM): 42.1% | viability, T/C (second compound 3.16 µM, first compound 0.01 µM): 36.7% | viability, T/C [4]: 28.2% | viability, T/C (second compound 10 µM, first compound 0.0001 µM): 60.9% | viability, T/C (second compound 10 µM, first compound 0.000316 µM): 54.3% | viability, T/C (second compound 10 µM, first compound 0.001 µM): 32.6% | viability, T/C (second compound 10 µM, first compound 0.00316 µM): 35.8% | viability, T/C (second compound 10 µM, first compound 0.01 µM): 28.1% | viability, T/C [5]: 23.8%

COC(=O)c1ccc2c(C(=Nc3ccc(N(C)C(=O)CN4CCN(C)CC4)cc3)c3ccccc3)c(O)[nH]c2c1 + C=CC(=O)N1CCN(c2nc(=O)n(-c3c(C)ccnc3C(C)C)c3nc(-c4c(O)cccc4F)c(F)cc23)C(C)C1
pIC50 (second compound 0.1 µM): 5.94 | pIC50 (second compound 0.316 µM): 6.27 | pIC50 (second compound 1 µM): 6.61 | pIC50 (second compound 3.16 µM): 6.71 | pIC50 (second compound 10 µM): > 7.50 | viability, T/C [1]: 53.3% | viability, T/C [6]: 55.6% | viability, T/C [7]: 53.7% | viability, T/C [8]: 50.7% | viability, T/C [9]: 42.6% | viability, T/C [10]: 19% | viability, T/C [2]: 56% | viability, T/C [11]: 52.4% | viability, T/C [12]: 52.6% | viability, T/C [13]: 46.8% | viability, T/C [14]: 28.4% | viability, T/C [15]: 16.6% | viability, T/C [3]: 57.9% | viability, T/C [16]: 57.6% | viability, T/C [17]: 48% | viability, T/C [18]: 28.2% | viability, T/C [19]: 21.4% | viability, T/C [20]: 16.8% | viability, T/C [4]: 58% | viability, T/C [21]: 56.6% | viability, T/C [22]: 46.4% | viability, T/C [23]: 27.9% | viability, T/C [24]: 22.1% | viability, T/C [25]: 13.8% | viability, T/C [5]: 43.1% | viability, T/C [26]: 32.9% | viability, T/C [27]: 29.6% | viability, T/C [28]: 18.8% | viability, T/C [29]: 17.8% | viability, T/C [30]: 12.5%

O=C(c1cc(Cc2n[nH]c(=O)c3ccccc23)ccc1F)N1CCN(C(=O)C2CC2)CC1 + C=CC(=O)N1CCN(c2nc(=O)n(-c3c(C)ccnc3C(C)C)c3nc(-c4c(O)cccc4F)c(F)cc23)C(C)C1
pIC50 (second compound 0.1 µM): < 5.00 | pIC50 (second compound 0.316 µM): 5.13 | pIC50 (second compound 1 µM): 5.11 | pIC50 (second compound 3.16 µM): < 5.00 | pIC50 (second compound 10 µM): 5.76 | viability, T/C [1]: 64.6% | viability, T/C [6]: 61.7% | viability, T/C [7]: 62.9% | viability, T/C [8]: 64.5% | viability, T/C [9]: 64.7% | viability, T/C [10]: 50.3% | viability, T/C [2]: 67.1% | viability, T/C [11]: 59.7% | viability, T/C [12]: 61.3% | viability, T/C [13]: 55.9% | viability, T/C [14]: 55.3% | viability, T/C [15]: 46.7% | viability, T/C [3]: 60.8% | viability, T/C [16]: 59.9% | viability, T/C [17]: 59.2% | viability, T/C [18]: 61.7% | viability, T/C [19]: 60.3% | viability, T/C [20]: 39.2% | viability, T/C [4]: 64.2% | viability, T/C [21]: 66.2% | viability, T/C [22]: 61.1% | viability, T/C [23]: 61% | viability, T/C [24]: 58.7% | viability, T/C [25]: 46.2% | viability, T/C [5]: 48.3% | viability, T/C [26]: 50.1% | viability, T/C [27]: 60.3% | viability, T/C [28]: 55.6% | viability, T/C [29]: 45% | viability, T/C [30]: 32%

Reference: PubChem BioAssay AID1963869 (Molecular Pharmacology Branch, DTP, NCI, 2024)
